Assay results from PubChem BioAssay (NCI).
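Interpolation was linear, between the two tested concentrations surrounding the appropriate level; five concentrations were tested over 48 hours in 96-well plates. TGI marks complete inhibition of growth.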

Columns and labels:
P388/ADR leukemia = experiment: NCI tumour cell line growth inhibition, 48 h
P388 leukemia = experiment: NCI tumour cell line growth inhibition, 48 h

| Compound | TGI (P388/ADR leukemia) [nM] | TGI (P388 leukemia) [nM] |
| --- | --- | --- |
| COc1cccc2c1C(=O)c1c(O)c3c(c(O)c1C2=O)C[C@@](O)(C(=O)CO)C[C@@H]3OC1CC(N)CC(C)O1 (some centres undefined) | 2960 | 588 |
| COC(=O)C[C@](O)(CCCC(C)(C)O)C(=O)O[C@@H]1C(OC)=C[C@]23CCCN2CCc2cc4c(cc2[C@H]13)OCO4 | 1350 | 10.1 |
